25 compounds from patent US9296741B2, “Bromodomain inhibitors” (priority 2012, dated 2016) can be followed below.

The structures appear in SMILES notation. Bounds are passed on as bounds.

Series [1] addresses human BRD4 first bromodomain (BDI_K57-E168) (Homo sapiens (Human), UniProt O60885). The series can be described thus: TR-FRET bromodomain binding assay, BRD4 first bromodomain.
Series [2] addresses human BRD4 second bromodomain (BDII_E352-M457) (Homo sapiens (Human), UniProt O60885). In words: TR-FRET bromodomain binding assay, BRD4 second bromodomain.
In series [3] the test system is breast cancer cell line MX-1. The series can be described thus: MX-1 cell line proliferation assay. In kind it is cell-based, human. Particulars: Homo sapiens, MX1, 72 h; MX-1 cells, 3-day proliferation, Cell Titer Glo; read-out: Cellular proliferation: EC50.
A short description of series [4]: Rat liver microsome stability assay. In kind it is in vitro ADME. The note with it: rat liver microsomes (male Sprague-Dawley), 0.5 μM test compound, pH 7.4, 37° C.; for half-life at 0.5 μM: 0.25 mg/mL microsomal protein, read-out: Stability in rat liver microsomes (t1/2 in minutes).
Series [5] is described as follows: Human liver microsome stability assay. In kind it is in vitro ADME. The note with it: both sexes, human, microsomes, pH 7.4. On the technique in general: Liver microsomes are vesicles of endoplasmic reticulum, rich in cytochrome P450 enzymes.

As a reminder, the Ki is a measure of affinity in units of concentration, obtained from inhibition or displacement. Lower therefore signals tighter binding. In the case of `Cn1cc(-c2cc(S(C)(=O)=O)ccc2Oc2ccc3c(c2)C(=O)CC3)c2cc[nH]c2c1=O` [Example 182, 6-methyl-4-{5-(methylsulfonyl)-2-[(3-oxo-2,3-dihydro-1H-inden-5-yl)oxy]phenyl}-1,6-dihydro-7H-pyrrolo[2,3-c]pyridin-7-one], the inhibitory constant (Ki) stood at 19 nM in series [1] and 9.7 nM in series [2].
With `Cn1cc(-c2cc(C(=O)N3CCS(=O)(=O)CC3)ccc2Oc2ccc(F)cc2F)c2cc[nH]c2c1=O` [Example 52, 4-{2-(2,4-difluorophenoxy)-5-[(1,1-dioxidothiomorpholin-4-yl)carbonyl]phenyl}-6-methyl-1,6-dihydro-7H-pyrrolo[2,3-c]pyridin-7-one], in series [3], the EC50 came out at 309 nM.
Take `Cn1cc(-c2cc(S(C)(=O)=O)ccc2Oc2ccc(Cl)c(F)c2)c2cc[nH]c2c1=O` [Example 189, 4-[2-(4-chloro-3-fluorophenoxy)-5-(methylsulfonyl)phenyl]-6-methyl-1,6-dihydro-7H-pyrrolo[2,3-c]pyridin-7-one]: the inhibitory constant (Ki) in series [1] was found to be 30.4 nM; in series [2], 23 nM. In addition, the results for the half-life at 0.5 μM in series [4] and in series [5] were 55 min and 34 min, respectively.
As for `Cn1cc(-c2cc(S(C)(=O)=O)ccc2Oc2cccc3c2CCC3=O)c2cc[nH]c2c1=O` [Example 175, 6-methyl-4-{5-(methylsulfonyl)-2-[(1-oxo-2,3-dihydro-1H-inden-4-yl)oxy]phenyl}-1,6-dihydro-7H-pyrrolo[2,3-c]pyridin-7-one], the values for the Ki in series [1] and in series [2] were 25.8 nM and 17.8 nM, respectively.
Turning to `Cn1cc(-c2cc(NC(=O)CC(F)(F)F)ccc2Oc2ccc(F)cc2F)c2cc[nH]c2c1=O` [Example 38, N-[4-(2,4-difluorophenoxy)-3-(6-methyl-7-oxo-6,7-dihydro-1H-pyrrolo[2,3-c]pyridin-4-yl)phenyl]-3,3,3-trifluoropropanamide], the inhibition constant Ki in series [1] worked out at 148 nM; in series [2] it was 257 nM. For the same compound, the half-life at 0.5 μM in series [4] is 25 min; in series [5] it was 16.8 min.
On to `Cn1cc(-c2cc(N)ccc2Oc2ccccc2)c2cc[nH]c2c1=O` [Example 3, 4-(5-amino-2-phenoxyphenyl)-6-methyl-1,6-dihydro-7H-pyrrolo[2,3-c]pyridin-7-one], for which the EC50 in series [3] was determined as 185 nM.
Take `Cn1cc(-c2cc(NC(=O)C(C)(C)C)ccc2Oc2ccc(F)cc2F)c2cc[nH]c2c1=O` [Example 39, N-[4-(2,4-difluorophenoxy)-3-(6-methyl-7-oxo-6,7-dihydro-1H-pyrrolo[2,3-c]pyridin-4-yl)phenyl]-2,2-dimethylpropanamide]: the inhibition constant (Ki) worked out at 112 nM in series [1] and 124 nM in series [2]. For the same compound, the half-life at 0.5 μM was 8 min in series [4] and 9.7 min in series [5].
Take `Cn1cc(-c2cc(S(C)(=O)=O)ccc2Oc2ccc3c(c2)CCC3=O)c2cc[nH]c2c1=O` [Example 181, 6-methyl-4-{5-(methylsulfonyl)-2-[(1-oxo-2,3-dihydro-1H-inden-5-yl)oxy]phenyl}-1,6-dihydro-7H-pyrrolo[2,3-c]pyridin-7-one]: the inhibition constant (Ki) in series [1] is 30.5 nM; in series [2], 22.4 nM.
In the case of `Cn1cc(-c2cc(C(=O)NCCc3ccc4c(c3)OCO4)ccc2Oc2ccc(F)cc2F)c2cc[nH]c2c1=O` [Example 132, N-[2-(1,3-benzodioxol-5-yl)ethyl]-4-(2,4-difluorophenoxy)-3-(6-methyl-7-oxo-6,7-dihydro-1 H-pyrrolo[2,3-c]pyridin-4-yl)benzamide], the results for the inhibition constant Ki in series [1] and in series [2] were 238 nM and 344 nM, respectively.
The corresponding values for `COc1cc(CNC(=O)c2ccc(Oc3ccc(F)cc3F)c(-c3cn(C)c(=O)c4[nH]ccc34)c2)cc(OC)c1OC` [Example 130, 4-(2,4-difluorophenoxy)-3-(6-methyl-7-oxo-6,7-dihydro-1H-pyrrolo[2,3-c]pyridin-4-yl)-N-(3,4,5-trimethoxybenzyl)benzamide] are 183 nM and 174 nM.
On to `Cn1cc(-c2cc(S(C)(=O)=O)ccc2Oc2cccc(Cl)c2F)c2cc[nH]c2c1=O` [Example 184, 4-[2-(3-chloro-2-fluorophenoxy)-5-(methylsulfonyl)phenyl]-6-methyl-1,6-dihydro-7H-pyrrolo[2,3-c]pyridin-7-one], for which, in series [3], the EC50 came to 78.8 nM.
Turning to `Cc1cccc(OCC2CC2)c1-c1cn(C)c(=O)c2[nH]ccc12` [Example 247, 4-[2-(cyclopropylmethoxy)-6-methylphenyl]-6-methyl-1,6-dihydro-7H-pyrrolo[2,3-c]pyridin-7-one], the Ki in series [1] came to 1100 nM; in series [2] it was 3000 nM.
Turning to `Cn1cc(-c2cc(C(=O)NC3CCN(C(=O)OC(C)(C)C)CC3)ccc2Oc2ccc(F)cc2F)c2cc[nH]c2c1=O` [Example 136, tert-butyl 4-{[4-(2,4-difluorophenoxy)-3-(6-methyl-7-oxo-6,7-dihydro-1H-pyrrolo[2,3-c]pyridin-4-yl)benzoyl]amino}piperidine-1-carboxylate], the Ki in series [1] stood at 234 nM; in series [2] it was 295 nM.
In the case of `Cn1cc(-c2cc(S(C)(=O)=O)ccc2Oc2cccc3ccccc23)c2cc[nH]c2c1=O` [Example 185, 6-methyl-4-[5-(methylsulfonyl)-2-(naphthalen-1-yloxy)phenyl]-1,6-dihydro-7H-pyrrolo[2,3-c]pyridin-7-one], the Ki in series [1] was 34.5 nM; in series [2], 12.2 nM.
With `Cn1cc(-c2cc(S(C)(=O)=O)ccc2Oc2cc(C(F)(F)F)ccc2Cl)c2cc[nH]c2c1=O` [Example 163, 4-{2-[2-chloro-5-(trifluoromethyl)phenoxy]-5-(methylsulfonyl)phenyl}-6-methyl-1,6-dihydro-7H-pyrrolo[2,3-c]pyridin-7-one], the EC50 in series [3] turned out to be 295 nM.
For `COc1ccc(NC(=O)c2ccc(Oc3ccc(F)cc3F)c(-c3cn(C)c(=O)c4[nH]ccc34)c2)c(OC)n1` [Example 117, 4-(2,4-difluorophenoxy)-N-(2,6-dimethoxypyridin-3-yl)-3-(6-methyl-7-oxo-6,7-dihydro-1H-pyrrolo[2,3-c]pyridin-4-yl)benzamide], the values for the inhibition constant Ki in series [1] and in series [2] were 2300 nM and 486 nM, respectively. For the same compound, the half-life at 0.5 μM in series [4] came out at 36 min; in series [5], 34 min.
As for `Cn1cc(-c2cc(S(C)(=O)=O)ccc2Oc2ccccc2C#N)c2cc[nH]c2c1=O` [Example 183, 2-[2-(6-methyl-7-oxo-6,7-dihydro-1H-pyrrolo[2,3-c]pyridin-4-yl)-4-(methylsulfonyl)phenoxy]benzonitrile], the Ki in series [1] was found to be 41.2 nM; in series [2], 19.8 nM.
Turning to `CN(C)S(=O)(=O)c1cnc(OC2CCOC2)c(-c2cn(C)c(=O)c3[nH]ccc23)c1` (stereo not drawn) [Example 110, N,N-dimethyl-5-(6-methyl-7-oxo-6,7-dihydro-1H-pyrrolo[2,3-c]pyridin-4-yl)-6-(tetrahydrofuran-3-yloxy)pyridine-3-sulfonamide], in series [3], the EC50 is 32.4 nM.
In the case of `Cn1cc(-c2ccccc2Cc2ccccc2)c2cc[nH]c2c1=O` [Example 195, 4-(2-benzylphenyl)-6-methyl-1,6-dihydro-7H-pyrrolo[2,3-c]pyridin-7-one], the Ki in series [1] was found to be 5500 nM; in series [2], 1020 nM. In addition, the “Stability in rat liver microsomes (t1/2 in minutes)” value in series [4] ([…] microsomal protein) is 1 min. The half-life at 0.5 μM in series [5] came to 13 min.
On to `Cn1cc(-c2cc(C(F)(F)F)ccc2Oc2ccc(F)cc2F)c2cc[nH]c2c1=O` [Example 275, 4-[2-(2,4-difluorophenoxy)-5-(trifluoromethyl)phenyl]-6-methyl-1,6-dihydro-7H-pyrrolo[2,3-c]pyridin-7-one], for which the inhibition constant Ki was found to be 526 nM in series [1] and 1130 nM in series [2].
With `Cc1c(NS(C)(=O)=O)ccc(OCC2CC2)c1-c1cn(C)c(=O)c2[nH]ccc12` [Example 262, N-[4-(cyclopropylmethoxy)-2-methyl-3-(6-methyl-7-oxo-6,7-dihydro-1H-pyrrolo[2,3-c]pyridin-4-yl)phenyl]methanesulfonamide], the results for the inhibition constant Ki in series [1] and in series [2] were 125 nM and 489 nM, respectively. For the same compound, the values for the half-life at 0.5 μM in series [4] and in series [5] were 25 min and above 120 min, respectively.
Turning to `Cn1nc(-c2cc(NS(C)(=O)=O)ccc2Oc2ccccc2)c2cc(C(=O)O)[nH]c2c1=O` [Example 77, 6-methyl-4-{5-[(methylsulfonyl)amino]-2-phenoxyphenyl}-7-oxo-6,7-dihydro-1H-pyrrolo[2,3-d]pyridazine-2-carboxylic acid], the EC50 in series [3] was above 3000 nM.
`CN1CCN(CCNC(=O)c2cc3c(-c4cc(NS(C)(=O)=O)ccc4Oc4ccccc4)nn(C)c(=O)c3[nH]2)CC1` [Example 79, 6-methyl-N-[2-(4-methylpiperazin-1-yl)ethyl]-4-{5-[(methylsulfonyl)amino]-2-phenoxyphenyl}-7-oxo-6,7-dihydro-1H-pyrrolo[2,3-d]pyridazine-2-carboxamide]: the EC50 in series [3] amounted to 887 nM.
For the compound `COc1ccc2[nH]cc(CCNC(=O)c3ccc(Oc4ccc(F)cc4F)c(-c4cn(C)c(=O)c5[nH]ccc45)c3)c2c1` [Example 124, 4-(2,4-difluorophenoxy)-N-[2-(5-methoxy-1H-indol-3-yl)ethyl]-3-(6-methyl-7-oxo-6,7-dihydro-1H-pyrrolo[2,3-c]pyridin-4-yl)benzamide], the inhibition constant Ki in series [1] was 320 nM; in series [2], 169 nM. Also, the half-life at 0.5 μM came out at 4 min in series [4] and 2 min in series [5].
`Cn1cc(-c2cc(C(=O)Nc3ncccn3)ccc2Oc2ccc(F)cc2F)c2cc[nH]c2c1=O` [Example 116, 4-(2,4-difluorophenoxy)-3-(6-methyl-7-oxo-6,7-dihydro-1H-pyrrolo[2,3-c]pyridin-4-yl)-N-(pyrimidin-2-yl)benzamide]: the inhibition constant (Ki) in series [1] was 105 nM; in series [2], 89.1 nM.
